Patent publication US20210078985A1, “COMPOUND, PREPARATION METHOD THEREFOR, AND USE THEREOF” (MEDSPRING INTERNATIONAL LIMITED, priority 2018, published 2021)
Values after ≈ are worked out from the molar mass of the structure shown. Read-outs that look alike come from different tables or passages of the source.

What was measured:
Caco-2 cells = experiment: In vitro membrane permeability test (Caco-2 monolayer)
Description: Caco-2 cell model is a human colonic adenocarcinoma cell line having a structure and function similar to differentiated intestinal epithelial cells. It has microvilli and other structures, and contains enzyme system related to intestinal brush border epithelium.
The cryopreserved Caco-2 cells were thawed in 37° C. water bath. After resuscitation, the cells were added into DMEM medium containing 10% FBS, and cultured in an incubator with 37° C., 5% CO2 and 90% relative humidity. The culture medium was changed every other day. After 1-2 days of growth, the cells were digested with 0.25% trypsin-EDTA (0.2%) mixed digestive solution at 37° C. and passaged in a certain proportion. The cell generation used in the experiments was 40-60 passages.
When cells reached 80% confluency, they were digested and suspended in complete medium and seeded on Millicell plate at 1×10^6 cells·ml^−1. After that, the culture medium was changed once every 2 days and after 1 week, was changed once every 1 day. After 5 days of culture, the resistance value reaches plateau (>200 Ω·cm^2), which can be then used for membrane permeability experiment.
The compound was diluted to 5 μmol·L^−1 by HBSS. Before experiments, the culture medium in each well was discarded, washed twice with HBSS solution at 37° C., and then incubated in a 37° C. incubator. […] The emission wavelength was set at 430 nm and the excitation wavelength was set at 530 nm.
Before experiments, Millicell inoculated with cells was soaked in HBSS solution at 37° C. for an appropriate time period, and the Millicell was washed slightly to remove the attachment on the cell surface. The permeability from cavity surface to basal surface: 0.35 ml HBSS solution containing drug was added to the top side (AP) and 1.2 ml blank HBSS solution was added to the bottom side (BL). The Millicell was incubated while shaking at 50 r·min^−1 at 37° C., a 50 μL sample was taken in the lower layer at 0, 30, 90 and 120 min, and a same volume of blank HBSS solution as added back. 3 holes were repeated for each concentration. 50 μL internal standard solution and 350 μL ethyl acetate were added to the sample, which was shaken and mixed, centrifuged at 12000 rpm for 5 min. 300 μL of supernatant was taken out, dried by evaporation, and re-dissolved in 50 μL acetonitrile. 10 μL sample was taken out for testing. For the permeability from the base surface to the cavity surface, the drug was added to the bottom side (BL), and the blank HBSS solution was added to the top side (AP). The following steps are the same as the permeability test operation from the cavity surface to the base surface.
The apparent permeability coefficient (Papp) of drugs reflects the ability of drugs to pass through monolayer cells and the speed and degree of drug absorption. It can be calculated by the following formula: […]
Herein, ΔQ is the amount of drug penetration during the time period of Δt, A is the cell surface area, which is the area of supporting membrane (0.6 cm^2) in this model, and Co is the initial concentration. The unit of Papp is usually expressed in cm/h (cm·h^−1) or cm/s (cm·s^−1).
LC/MS was used for testing. The standard curve ([…]-10000 nM) was used to quantify the concentration of each sample.

[1] = Description: Solubility of compounds was determined according to the method established in the general instructions of Part II of Pharmacopoeia 2010 edition. […] The dissolution was observed within 30 minutes.
(§1) The dissolution was then observed within 30 minutes.
as §1

[2] = biological target: T1, CHO membranes expressing CCR4 (Homo sapiens, UniProt P51679); experiment: In vitro CCR4 antagonistic activity, competitive [35S]-GTPγS test; type: biochemical
T1 construct: expressed in transfected cells; host or cells: CHO cell membranes
T1 sequence (P51679 1-360): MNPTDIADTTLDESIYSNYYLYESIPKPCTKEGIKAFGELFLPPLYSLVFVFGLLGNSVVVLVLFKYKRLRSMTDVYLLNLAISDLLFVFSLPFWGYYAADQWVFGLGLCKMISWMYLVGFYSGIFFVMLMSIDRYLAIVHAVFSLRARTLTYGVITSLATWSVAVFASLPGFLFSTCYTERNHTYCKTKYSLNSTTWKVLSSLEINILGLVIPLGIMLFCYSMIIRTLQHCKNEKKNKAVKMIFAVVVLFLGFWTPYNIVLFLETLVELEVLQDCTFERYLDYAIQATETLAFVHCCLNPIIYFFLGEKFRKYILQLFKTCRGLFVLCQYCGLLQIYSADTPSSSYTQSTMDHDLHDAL
Description: The potency of antagonists was tested by a competitive test of [35S]-GTPγS. Briefly, CHO membranes expressing CCR4 were homogenized through a 23 G needle. These membranes were then attached to WGA-coated Leadseeker SPA beads in a testing buffer (20 mM HEPES, 10 mM MgCl2, 100 mM NaCl, 0.05% BSA, 40 ug/ml saponin, adjusted to pH 7.4 with KOH 5M) to produce 3 μg/well final […] (FAC) membrane and 250 μg/well FAC bead solution. After 60 minutes of pre-coupling on ice, GDP was added to obtain 4.4 uM FAC. Then [35S]-GTPS, which was prepared in the testing buffer, was added into the bead/membrane solution to thereby obtain 0.33 nM FAC. […] The suspension of beads/membranes/[35S]-GTPγS/agonist was distributed into a white Greiner polypropylene 384-pore plate (45 μL/well), which contained 0.5 μl of compound. The final testing solution (45.5 μL) was sealed, centrifuged and incubated at room temperature for 3-6 hours. Then, the plate was read with Viewlux and the luminescence was plotted as the percentage of the maximum inhibitory response induced by IC100 standard antagonist.

| SMILES | absorption classification from Papp (Caco-2 cells; Caco-2) | Papp (apparent permeability coefficient) (Caco-2 cells; human, Caco-2) | Solubility in water under 25° C. ± 2° C. [1] [mg/mL] | permeability, times higher than compound 6 (Caco-2 cells; Caco-2) | solubility, times higher than that of compound 6 [1] | IC50, times higher than that of compound 6 [2] [times] | absorption classification from Papp (Caco-2 cells; Caco-2, Papp>2×10^−6 = good-absorption drug) | Papp (apparent permeability coefficient) (Caco-2 cells; Caco-2 monolayer, direction not given, sodium) | Solubility in water under 25° C. ± 2° C. ([1]; water, 25° C. ± 2° C., visual dissolution within 30 minutes) [mg/mL] | IC50, times higher than that of compound 6 ([2]; relative to compound 6, same experimental conditions) [times] |
| --- | --- | --- | --- | --- | --- | --- | --- | --- | --- | --- |
| COc1cccc2c1c(NS(=O)(=O)c1ccc(Cl)s1)nn2Cc1cccc(CNC(=O)C(C)(C)O)c1 [Compound 6, N-[(3-{[3-{[(5-chloro-2-thienyl)sulfonyl]amino}-4-(methoxy)-1H-indazole-1-yl]methyl}phenyl)methyl]-2-hydroxy-2-methylpropionamide, reference compound] | difficult-to-absorb compound | 0.13 ×10^−6 | 0.02 (≈ 36.4 µM) | – | – | – | – | – | – | – |
| COc1cccc2c1c(NS(=O)(=O)c1ccc(Cl)s1)nn2Cc1cccc(CNC(=O)C(C)(C)O)c1 [Compound of formula III, N-[(3-{[3-{[(5-chloro-2-thienyl)sulfonyl]amino}-4-(methoxy)-1H-indazole-1-yl]methyl}phenyl)methyl]-2-hydroxy-2-methylpropionamide potassium] | easy-to-absorb compounds | – | 40 | 530-780 times | 2000-25000 times | 210 | – | – | – | – |
| COc1cccc2c1c(NS(=O)(=O)c1ccc(Cl)s1)nn2Cc1cccc(CNC(=O)C(C)(C)O)c1.[Na] [Compound of formula II, N-[(3-{[3-{[(5-chloro-2-thienyl)sulfonyl]amino}-4-(methoxy)-1H-indazole-1-yl]methyl}phenyl)methyl]-2-hydroxy-2-methylpropionamide sodium] | – | – | – | – | – | – | easy-to-absorb compounds | 68.82 ×10^−6 | 500 | 6 |
